{
  "source": "PubChem BioAssay (NCI)",
  "assay_in_all_cases": "NCI anticancer screen, dose series, 48 h",
  "key": {"786-0 renal": {"tested_on": "786-0 renal"}, "A549 NSCLC": {"tested_on": "A549 NSCLC"}, "ACHN renal": {"tested_on": "ACHN renal"}, "BT-549 breast": {"tested_on": "BT-549 breast"}, "CAKI-1 renal": {"tested_on": "CAKI-1 renal"}, "CCRF-CEM leukemia": {"tested_on": "CCRF-CEM leukemia"}, "COLO 205 colon": {"tested_on": "COLO 205 colon"}, "DU-145 prostate": {"tested_on": "DU-145 prostate"}, "EKVX NSCLC": {"tested_on": "EKVX NSCLC"}, "HCT-116 colon": {"tested_on": "HCT-116 colon"}, "HCT-15 colon": {"tested_on": "HCT-15 colon"}, "HL-60(TB) leukemia": {"tested_on": "HL-60(TB) leukemia"}, "HOP-62 NSCLC": {"tested_on": "HOP-62 NSCLC"}, "HOP-92 NSCLC": {"tested_on": "HOP-92 NSCLC"}, "HS 578T breast": {"tested_on": "HS 578T breast"}, "HT29 colon": {"tested_on": "HT29 colon"}, "IGROV1 ovarian": {"tested_on": "IGROV1 ovarian"}, "K-562 leukemia": {"tested_on": "K-562 leukemia"}, "KM12 colon": {"tested_on": "KM12 colon"}, "LOX IMVI melanoma": {"tested_on": "LOX IMVI melanoma"}, "M14 melanoma": {"tested_on": "M14 melanoma"}, "MALME-3M melanoma": {"tested_on": "MALME-3M melanoma"}, "MCF7 breast": {"tested_on": "MCF7 breast"}, "MDA-MB-231 breast": {"tested_on": "MDA-MB-231 breast"}, "MDA-MB-435": {"tested_on": "MDA-MB-435"}, "MOLT-4 leukemia": {"tested_on": "MOLT-4 leukemia"}, "NCI-H226 lung": {"tested_on": "NCI-H226 lung"}, "NCI-H23 lung": {"tested_on": "NCI-H23 lung"}, "NCI-H460 lung": {"tested_on": "NCI-H460 lung"}, "NCI-H522 lung": {"tested_on": "NCI-H522 lung"}, "NCI/ADR-RES ovarian": {"tested_on": "NCI/ADR-RES ovarian"}, "OVCAR-3 ovarian": {"tested_on": "OVCAR-3 ovarian"}, "OVCAR-4 ovarian": {"tested_on": "OVCAR-4 ovarian"}, "OVCAR-5 ovarian": {"tested_on": "OVCAR-5 ovarian"}, "OVCAR-8 ovarian": {"tested_on": "OVCAR-8 ovarian"}, "PC-3 prostate": {"tested_on": "PC-3 prostate"}, "RPMI-8226 leukemia": {"tested_on": "RPMI-8226 leukemia"}, "SF-268 CNS": {"tested_on": "SF-268 CNS"}, "SF-295 CNS": {"tested_on": "SF-295 CNS"}, "SF-539 CNS": {"tested_on": "SF-539 CNS"}, "SK-MEL-2 melanoma": {"tested_on": "SK-MEL-2 melanoma"}, "SK-MEL-28 melanoma": {"tested_on": "SK-MEL-28 melanoma"}, "SK-MEL-5 melanoma": {"tested_on": "SK-MEL-5 melanoma"}, "SK-OV-3 ovarian": {"tested_on": "SK-OV-3 ovarian"}, "SN12C renal": {"tested_on": "SN12C renal"}, "SNB-19 CNS": {"tested_on": "SNB-19 CNS"}, "SNB-75 CNS": {"tested_on": "SNB-75 CNS"}, "SR leukemia": {"tested_on": "SR leukemia"}, "SW-620 colon": {"tested_on": "SW-620 colon"}, "T-47D breast": {"tested_on": "T-47D breast"}, "TK-10 renal": {"tested_on": "TK-10 renal"}, "U251 CNS": {"tested_on": "U251 CNS"}, "UACC-257 melanoma": {"tested_on": "UACC-257 melanoma"}, "UACC-62 melanoma": {"tested_on": "UACC-62 melanoma"}, "UO-31 renal": {"tested_on": "UO-31 renal"}},
  "note": "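Test compounds were applied to cells in 96-well plates for 48 hours at 5 doses. TGI is the concentration that stops growth completely.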",
  "data": [
    {"smiles": "O=C1OC(CN2CCOCC2)CN1/N=C/c1ccc([N+](=O)[O-])o1", "note": "(stereo not given)", "values": [
      {"measurement": "TGI", "setting": "786-0 renal", "value": "> 100", "unit": "µM"},
      {"measurement": "TGI", "setting": "A549 NSCLC", "value": "> 100", "unit": "µM"},
      {"measurement": "TGI", "setting": "ACHN renal", "value": "> 100", "unit": "µM"},
      {"measurement": "TGI", "setting": "BT-549 breast", "value": "> 100", "unit": "µM"},
      {"measurement": "TGI", "setting": "CAKI-1 renal", "value": "> 100", "unit": "µM"},
      {"measurement": "TGI", "setting": "CCRF-CEM leukemia", "value": "> 100", "unit": "µM"},
      {"measurement": "TGI", "setting": "COLO 205 colon", "value": "> 100", "unit": "µM"},
      {"measurement": "TGI", "setting": "DU-145 prostate", "value": "> 100", "unit": "µM"},
      {"measurement": "TGI", "setting": "EKVX NSCLC", "value": "> 100", "unit": "µM"},
      {"measurement": "TGI", "setting": "HCT-116 colon", "value": 39.3, "unit": "µM"},
      {"measurement": "TGI", "setting": "HCT-15 colon", "value": 39.2, "unit": "µM"},
      {"measurement": "TGI", "setting": "HL-60(TB) leukemia", "value": "> 100", "unit": "µM"},
      {"measurement": "TGI", "setting": "HOP-62 NSCLC", "value": "> 100", "unit": "µM"},
      {"measurement": "TGI", "setting": "HOP-92 NSCLC", "value": "> 100", "unit": "µM"},
      {"measurement": "TGI", "setting": "HS 578T breast", "value": "> 100", "unit": "µM"},
      {"measurement": "TGI", "setting": "HT29 colon", "value": "> 100", "unit": "µM"},
      {"measurement": "TGI", "setting": "IGROV1 ovarian", "value": 84.8, "unit": "µM"},
      {"measurement": "TGI", "setting": "K-562 leukemia", "value": "> 100", "unit": "µM"},
      {"measurement": "TGI", "setting": "KM12 colon", "value": 45.8, "unit": "µM"},
      {"measurement": "TGI", "setting": "LOX IMVI melanoma", "value": 59.6, "unit": "µM"},
      {"measurement": "TGI", "setting": "M14 melanoma", "value": 45.6, "unit": "µM"},
      {"measurement": "TGI", "setting": "MALME-3M melanoma", "value": 46.6, "unit": "µM"},
      {"measurement": "TGI", "setting": "MCF7 breast", "value": "> 100", "unit": "µM"},
      {"measurement": "TGI", "setting": "MDA-MB-231 breast", "value": "> 100", "unit": "µM"},
      {"measurement": "TGI", "setting": "MDA-MB-435", "value": 33.3, "unit": "µM"},
      {"measurement": "TGI", "setting": "MOLT-4 leukemia", "value": "> 100", "unit": "µM"},
      {"measurement": "TGI", "setting": "NCI-H226 lung", "value": "> 100", "unit": "µM"},
      {"measurement": "TGI", "setting": "NCI-H23 lung", "value": 53.9, "unit": "µM"},
      {"measurement": "TGI", "setting": "NCI-H460 lung", "value": "> 100", "unit": "µM"},
      {"measurement": "TGI", "setting": "NCI-H522 lung", "value": 72.3, "unit": "µM"},
      {"measurement": "TGI", "setting": "NCI/ADR-RES ovarian", "value": "> 100", "unit": "µM"},
      {"measurement": "TGI", "setting": "OVCAR-3 ovarian", "value": 67.4, "unit": "µM"},
      {"measurement": "TGI", "setting": "OVCAR-4 ovarian", "value": "> 100", "unit": "µM"},
      {"measurement": "TGI", "setting": "OVCAR-5 ovarian", "value": "> 100", "unit": "µM"},
      {"measurement": "TGI", "setting": "OVCAR-8 ovarian", "value": "> 100", "unit": "µM"},
      {"measurement": "TGI", "setting": "PC-3 prostate", "value": "> 100", "unit": "µM"},
      {"measurement": "TGI", "setting": "RPMI-8226 leukemia", "value": "> 100", "unit": "µM"},
      {"measurement": "TGI", "setting": "SF-268 CNS", "value": "> 100", "unit": "µM"},
      {"measurement": "TGI", "setting": "SF-295 CNS", "value": "> 100", "unit": "µM"},
      {"measurement": "TGI", "setting": "SF-539 CNS", "value": "> 100", "unit": "µM"},
      {"measurement": "TGI", "setting": "SK-MEL-2 melanoma", "value": "> 100", "unit": "µM"},
      {"measurement": "TGI", "setting": "SK-MEL-28 melanoma", "value": "> 100", "unit": "µM"},
      {"measurement": "TGI", "setting": "SK-MEL-5 melanoma", "value": 63, "unit": "µM"},
      {"measurement": "TGI", "setting": "SK-OV-3 ovarian", "value": "> 100", "unit": "µM"},
      {"measurement": "TGI", "setting": "SN12C renal", "value": 92, "unit": "µM"},
      {"measurement": "TGI", "setting": "SNB-19 CNS", "value": "> 100", "unit": "µM"},
      {"measurement": "TGI", "setting": "SNB-75 CNS", "value": "> 100", "unit": "µM"},
      {"measurement": "TGI", "setting": "SR leukemia", "value": "> 100", "unit": "µM"},
      {"measurement": "TGI", "setting": "SW-620 colon", "value": "> 100", "unit": "µM"},
      {"measurement": "TGI", "setting": "T-47D breast", "value": "> 100", "unit": "µM"},
      {"measurement": "TGI", "setting": "TK-10 renal", "value": "> 100", "unit": "µM"},
      {"measurement": "TGI", "setting": "U251 CNS", "value": 98.6, "unit": "µM"},
      {"measurement": "TGI", "setting": "UACC-257 melanoma", "value": "> 100", "unit": "µM"},
      {"measurement": "TGI", "setting": "UACC-62 melanoma", "value": 99.2, "unit": "µM"},
      {"measurement": "TGI", "setting": "UO-31 renal", "value": "> 100", "unit": "µM"}
    ]}
  ]
}
